{"source": "patent US11702444B2", "about": "“Method for preparing natural bioactive peptide Tubulysin U” (Shenzhen Institute of Geriatrics, priority 2020, dated 2023)", "origin": "cited, not measured here", "key": {"1A9 ovarian cancer cells": {"test_system": "1A9 ovarian cancer cells", "conditions": "antiproliferative activity in vitro"}, "[1]": {"test_system": "MCF-7 breast cancer cells", "conditions": "antiproliferative activity in vitro"}}, "note": "pIC50: −log10 of the molar value."}
{"smiles": "CC[C@H](C)[C@H](NC(=O)[C@H]1CCCCN1C)C(=O)N[C@H](C[C@@H](OC(C)=O)c1nc(C(=O)N[C@@H](Cc2ccccc2)C[C@H](C)C(=O)O)cs1)C(C)C", "note": "[Tubulysin U]", "values": [{"measurement": "pIC50", "setting": "1A9 ovarian cancer cells", "result": 9.19}, {"measurement": "pIC50", "setting": "[1]", "result": 9.40}]}
